One assay concerns cMYC in NCI-H82. In words: Western blot analysis of cMYC protein level in NCI-H82 cells. Format: cell-based. The note with it: 24 h; for effect on cMYC protein level in NCI-H82: various concentrations; for NCI-H82 cMYC, relative protein level: 1.0 μM of compound, mean ± SD, triplicate. The method, then:
(§1) Cancer cells were treated with each of the compounds at different compound concentrations. […] Each lysate was separated by sodium dodecyl sulfate polyacrylamide gel electrophoresis (SDS-PAGE), transferred to polyvinylidene fluoride (PVDF, Millipore, USA) membrane, and blotted with antibodies. […] After the blotting (0.2% casein, 1% BSA, or 5% nonfat milk), membranes were washed with blotting buffer (0.2% casein in 1× PBS or 1× TBST), and corresponding alkaline phosphatase (AP)- or horseradish peroxidase (HRP)-conjugated secondary antibodies (Sigma-Aldrich) were added. The blots were developed by chemiluminescence (PerkinElmer, USA).
A general note: A western blot detects proteins with antibodies after separation by electrophoresis.

For assay [1], the target named is T1, human Aurora A (amino acids 123–401) (Homo sapiens, UniProt O14965).
T1 construct: N-terminal truncated human Aurora A (amino acids 123–401); GST; made in house; host or cells: Sf9 insect cells
T1 sequence (O14965 123-401): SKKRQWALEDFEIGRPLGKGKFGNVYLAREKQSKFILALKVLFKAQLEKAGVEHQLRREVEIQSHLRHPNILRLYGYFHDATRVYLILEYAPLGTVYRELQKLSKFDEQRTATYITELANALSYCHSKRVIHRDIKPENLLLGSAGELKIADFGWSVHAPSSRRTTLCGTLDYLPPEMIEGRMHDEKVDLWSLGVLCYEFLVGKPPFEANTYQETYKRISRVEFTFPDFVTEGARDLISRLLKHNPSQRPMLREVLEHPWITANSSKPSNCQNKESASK
In words: In vitro inhibition of Aurora A kinase activity (Kinase-Glo Plus Luminescent Kinase assay, ATP consumption). The assay is classed as biochemical. The settings on record: for IC50: mean of 2–3 independent determinations ± SD, >100 = inhibition < 50% at 100 nM. The method, then: The inhibitory potency of the newly synthesized small molecules against Aurora A was first measured in ATP consumption assays using purified Aurora A protein.
The efficacy of the compounds as inhibitors of Aurora A kinase was assessed in vitro using the Kinase-Glo Plus Luminescent Kinase assay (Promega, USA), as described previously.[45] […] The resulting mixture was incubated at 25 °C for 20 min. A 70 μL aliquot of the mixture was transferred to a black microtiter plate.
(In general: Kinase-Glo measures the ATP left after a reaction by luminescence.)

The subject of a further assay is MYCN in SK-N-BE(2). In words: Western blot analysis of MYCN protein level in SK-N-BE(2) cells. Format: cell-based. The note with it: 1.0 μM of compound, 24 h, mean ± SD, triplicate. The method, then:
as §1

Structures are written as SMILES.

One may read the IC50 as the concentration at which inhibition is half-maximal.

For `CCN(CCCOc1ccc2c(Nc3cc(CC(=O)Nc4cccc(F)c4)[nH]n3)ncnc2c1)CCOP(=O)(O)O` [AZD1152, reference compound], the “effect on cMYC protein level in NCI-H82” value in the assay on cMYC in NCI-H82 is recorded as “limited effect”.
The same measure, in the same setting: to `CCN1CCN(C(=O)Cc2ccc(Nc3ncc(F)c(Nc4ccc(C(=O)Nc5ccccc5Cl)cc4)n3)cc2)CC1` [Aurora A inhibitor I, reference compound] belongs “limited effect”.
Regarding `CCN1CCN(c2cc(Nc3cc(C)[nH]n3)nc(N[C@H]3CCN(C(=O)c4cccc(Cl)c4F)C3)n2)CC1` [Compound 1, (S)-(3-Chloro-2-fluorophenyl) (3-((4-(4-ethylpiperazin-1-yl)-6-((5-methyl-1H-pyrazol-3-yl)amino)pyrimidin-2-yl)amino)pyrrolidin-1-yl)methanone], in the assay with cMYC in NCI-H82, the “NCI-H82 cMYC, relative protein level” value is listed as 0.781 ± 0.015. Also, in assay [1], the IC50 was 0.0241 ± 0.0079 µM.
Regarding `Cc1cc(Nc2cc(N3CCN(C)CC3)nc(N[C@H]3CCN(C(=O)c4cccc(Cl)c4F)C3)n2)n[nH]1` [Compound 2, (S)-(3-Chloro-2-fluorophenyl) (3-((4-((5-methyl-1H-pyrazol-3-yl)amino)-6-(4-methylpiperazin-1-yl)pyrimidin-2-yl)amino)pyrrolidin-1-yl)methanone], the half-inhibitory concentration (IC50) in assay [1] came to 0.0257 ± 0.0049 µM.
Take `Cc1cc(Nc2cc(N3CC(N(C)C)C3)nc(N[C@H]3CCN(C(=O)c4cccc(Cl)c4F)C3)n2)n[nH]1` [Compound 3, (S)-(3-Chloro-2-fluorophenyl) (3-((4-(3-(dimethylamino)azetidin-1-yl)-6-((5-methyl-1H-pyrazol-3-yl)amino)pyrimidin-2-yl)amino)pyrrolidin-1-yl)methanone]: in assay [1], the IC50 turned out to be 0.0298 ± 0.0025 µM.
For the molecule `Cc1cc(Nc2cc(N3CC[C@H](N(C)C)C3)nc(N[C@H]3CCN(C(=O)c4cccc(Cl)c4F)C3)n2)n[nH]1` [Compound 4, (3-Chloro-2-fluorophenyl) ((S)-3-((4-((S)-3-(dimethylamino)pyrrolidin-1-yl)-6-((5-methyl-1H-pyrazol-3-yl)amino)pyrimidin-2-yl)amino)pyrrolidin-1-yl)methanone], the IC50 in assay [1] amounted to 0.0298 ± 0.0007 µM.
For the molecule `Cc1cc(Nc2cc(N(C)CCN(C)C)nc(N[C@H]3CCN(C(=O)c4cccc(Cl)c4F)C3)n2)n[nH]1` [Compound 5, (S)-(3-Chloro-2-fluorophenyl) (3-((4-((2-(dimethylamino)ethyl) (methyl)amino)-6-((5-methyl-1H-pyrazol-3-yl)amino)pyrimidin-2-yl)amino)pyrrolidin-1-yl)methanone], the concentration for half-maximal inhibition (IC50) in assay [1] came out at 0.0408 ± 0.0028 µM.
As to `CCN1CCN(c2cc(Nc3cc(C)[nH]n3)nc(N[C@H]3CCN(C(=O)c4ccccc4)C3)n2)CC1` [Compound 6, (S)-(3-((4-(4-Ethylpiperazin-1-yl)-6-((5-methyl-1H-pyrazol-3-yl)amino)pyrimidin-2-yl)amino)pyrrolidin-1-yl) (phenyl)methanone], in assay [1], the IC50 is 0.029 ± 0.0067 µM.
`CCN1CCN(c2cc(Nc3cc(C)[nH]n3)nc(N[C@H]3CCN(C(=O)c4ccc(Cl)cc4)C3)n2)CC1` [Compound 7, (S)-(4-Chlorophenyl) (3-((4-(4-ethylpiperazin-1-yl)-6-((5-methyl-1H-pyrazol-3-yl)amino)pyrimidin-2-yl)amino)pyrrolidin-1-yl)methanone]: in the assay with MYCN in SK-N-BE(2), the “SK-N-BE(2) MYCN, relative protein level” value turned out to be 0.889 ± 0.067. For the same molecule, in the assay on cMYC in NCI-H82, the “NCI-H82 cMYC, relative protein level” value is listed as 0.887 ± 0.050. The IC50 in assay [1] was 0.0429 ± 0.0026 µM.
Turning to `CCN1CCN(c2cc(Nc3cc(C)[nH]n3)nc(N[C@H]3CCN(C(=O)c4ccc(Cl)cc4Cl)C3)n2)CC1` [Compound 8, (S)-(2,4-Dichlorophenyl) (3-((4-(4-ethylpiperazin-1-yl)-6-((5-methyl-1H-pyrazol-3-yl)amino)pyrimidin-2-yl)amino)pyrrolidin-1-yl)methanone], in the assay with MYCN in SK-N-BE(2), the “SK-N-BE(2) MYCN, relative protein level” value stood at 1.000 ± 0.035. For the same molecule, the “NCI-H82 cMYC, relative protein level” value in the assay with cMYC in NCI-H82 is on record as 1.175 ± 0.124. Also, the half-inhibitory concentration (IC50) in assay [1] was 0.0482 ± 0.0097 µM.
`CCN1CCN(c2cc(Nc3cc(C)[nH]n3)nc(N[C@H]3CCN(C(=O)c4ccc(Cl)cc4C)C3)n2)CC1` [Compound 9, (S)-(4-Chloro-2-methylphenyl) (3-((4-(4-ethylpiperazin-1-yl)-6-((5-methyl-1H-pyrazol-3-yl)amino)pyrimidin-2-yl)amino)pyrrolidin-1-yl)methanone]: the “SK-N-BE(2) MYCN, relative protein level” value in the assay on MYCN in SK-N-BE(2) came to 1.057 ± 0.312. In the assay with cMYC in NCI-H82, the “NCI-H82 cMYC, relative protein level” value stood at 0.984 ± 0.052. For the same molecule, in assay [1], the IC50 came to 0.0649 ± 0.0085 µM.
Consider `CCN1CCN(c2cc(Nc3cc(C)[nH]n3)nc(N[C@H]3CCN(C(=O)c4ccc(Cl)c(F)c4)C3)n2)CC1` [Compound 10, (S)-(4-Chloro-3-fluorophenyl) (3-((4-(4-ethylpiperazin-1-yl)-6-((5-methyl-1H-pyrazol-3-yl)amino)pyrimidin-2-yl)amino)pyrrolidin-1-yl)methanone], for which, in the assay with MYCN in SK-N-BE(2), the “SK-N-BE(2) MYCN, relative protein level” value was found to be 0.578 ± 0.135. The “NCI-H82 cMYC, relative protein level” value in the assay with cMYC in NCI-H82 was 0.715 ± 0.048. For the same molecule, the concentration for half-maximal inhibition (IC50) in assay [1] was determined as 0.0522 ± 0.0081 µM.
Regarding `CCN1CCN(c2cc(Nc3cc(C)[nH]n3)nc(N[C@H]3CCN(C(=O)c4ccc(Cl)c(C)c4)C3)n2)CC1` [Compound 11, (S)-(4-Chloro-3-methylphenyl) (3-((4-(4-ethylpiperazin-1-yl)-6-((5-methyl-1H-pyrazol-3-yl)amino)pyrimidin-2-yl)amino)pyrrolidin-1-yl)methanone], the “SK-N-BE(2) MYCN, relative protein level” value with MYCN in SK-N-BE(2) came to 1.030 ± 0.256. Moreover, the “NCI-H82 cMYC, relative protein level” value with cMYC in NCI-H82 was 1.050 ± 0.060. Further, the 50% inhibitory concentration (IC50) in assay [1] was 0.0581 ± 0.0074 µM.
In the same order, the values of `CCN1CCN(c2cc(Nc3cc(C)[nH]n3)nc(N[C@H]3CCN(C(=O)c4cc(Cl)ccc4F)C3)n2)CC1` [Compound 12, (S)-(5-Chloro-2-fluorophenyl) (3-((4-(4-ethylpiperazin-1-yl)-6-((5-methyl-1H-pyrazol-3-yl)amino)pyrimidin-2-yl)amino)pyrrolidin-1-yl)methanone] are 0.734 ± 0.104, 0.559 ± 0.119 and 0.0458 ± 0.0014 µM.
`CCN1CCN(c2cc(Nc3cc(C)[nH]n3)nc(N[C@H]3CCN(C(=O)c4ccc(C(F)(F)F)cc4F)C3)n2)CC1` [Compound 14, (S)-(3-((4-(4-Ethylpiperazin-1-yl)-6-((5-methyl-1H-pyrazol-3-yl)amino)pyrimidin-2-yl)amino)pyrrolidin-1-yl) (2-fluoro-4-(trifluoromethyl)phenyl)methanone]: the half-inhibitory concentration (IC50) in assay [1] was above 0.1 µM.
Regarding `CCN1CCN(c2cc(Nc3cc(C)[nH]n3)nc(N[C@H]3CCN(C(=O)c4c(F)cc(Cl)cc4F)C3)n2)CC1` [Compound 15, (S)-(4-Chloro-2,6-difluorophenyl) (3-((4-(4-ethylpiperazin-1-yl)-6-((5-methyl-1H-pyrazol-3-yl)amino)pyrimidin-2-yl)amino)pyrrolidin-1-yl)methanone], in the assay on MYCN in SK-N-BE(2), the “SK-N-BE(2) MYCN, relative protein level” value came out at 0.757 ± 0.121. Also, the “NCI-H82 cMYC, relative protein level” value in the assay with cMYC in NCI-H82 came out at 1.153 ± 0.158. Moreover, the IC50 in assay [1] is 0.0567 ± 0.0039 µM.
As to `CCN1CCN(c2cc(Nc3cc(C)[nH]n3)nc(N[C@H]3CCN(C(=O)c4cc(F)c(Cl)c(F)c4)C3)n2)CC1` [Compound 18, (S)-(4-Chloro-3,5-difluorophenyl) (3-((4-(4-ethylpiperazin-1-yl)-6-((5-methyl-1H-pyrazol-3-yl)amino)pyrimidin-2-yl)amino)pyrrolidin-1-yl)methanone], the IC50 in assay [1] was above 0.1 µM.
On to `CCN1CCN(c2cc(Nc3cc(C)[nH]n3)nc(N[C@H]3CCN(C(=O)c4cc(F)c(F)cc4F)C3)n2)CC1` [Compound 19, (S)-(3-((4-(4-Ethylpiperazin-1-yl)-6-((5-methyl-1H-pyrazol-3-yl)amino)pyrimidin-2-yl)amino)pyrrolidin-1-yl) (2,4,5-trifluorophenyl)methanone], for which the IC50 in assay [1] is above 0.1 µM.
`CCN1CCN(c2cc(Nc3cc(C)[nH]n3)nc(N[C@H]3CCN(C(=O)c4ccc(Cl)nc4F)C3)n2)CC1` [Compound 20, (S)-(6-Chloro-2-fluoropyridin-3-yl) (3-((4-(4-ethylpiperazin-1-yl)-6-((5-methyl-1H-pyrazol-3-yl)amino)pyrimidin-2-yl)amino)pyrrolidin-1-yl)methanone]: in assay [1], the “reduction of Aurora A inhibitory potency versus 13” value is given as “more than 2.5 fold” and the half-maximal inhibitory concentration (IC50) was above 0.1 µM.
In the same order, the values of `CCN1CCN(c2cc(Nc3cc(C)[nH]n3)nc(N[C@H]3CCN(S(=O)(=O)c4ccc(Cl)cc4F)C3)n2)CC1` [Compound 21, (S)-N^2-(1-((4-Chloro-2-fluorophenyl)sulfonyl)pyrrolidin-3-yl)-6-(4-ethylpiperazin-1-yl)-N^4-(5-methyl-1H-pyrazol-3-yl)pyrimidine-2,4-diamine] are “more than 2.5 fold” and above 0.1 µM.
